Assays:
EGFR (d746-750) = biological target: T1, EGFR (d746-750) (Homo sapiens, UniProt P00533, DEL746-750); test: Biochemical EGFR inhibition assay (Caliper mobility shift), EGFR (d746-750); settings: read-out: Enz EGFR_Exon19-del746-750 IC50
T1 construct: purchased SignalChem E10-122JG

EGFR L858R = biological target: T2, EGFR L858R (Homo sapiens, UniProt P00533, L858R); test: Biochemical EGFR inhibition assay (Caliper mobility shift), EGFR L858R; settings: read-out: Enz EGFR_L858R IC50
T2 construct: purchased SignalChem E10-122BG
T2 sequence (P00533 25-1210 L858R): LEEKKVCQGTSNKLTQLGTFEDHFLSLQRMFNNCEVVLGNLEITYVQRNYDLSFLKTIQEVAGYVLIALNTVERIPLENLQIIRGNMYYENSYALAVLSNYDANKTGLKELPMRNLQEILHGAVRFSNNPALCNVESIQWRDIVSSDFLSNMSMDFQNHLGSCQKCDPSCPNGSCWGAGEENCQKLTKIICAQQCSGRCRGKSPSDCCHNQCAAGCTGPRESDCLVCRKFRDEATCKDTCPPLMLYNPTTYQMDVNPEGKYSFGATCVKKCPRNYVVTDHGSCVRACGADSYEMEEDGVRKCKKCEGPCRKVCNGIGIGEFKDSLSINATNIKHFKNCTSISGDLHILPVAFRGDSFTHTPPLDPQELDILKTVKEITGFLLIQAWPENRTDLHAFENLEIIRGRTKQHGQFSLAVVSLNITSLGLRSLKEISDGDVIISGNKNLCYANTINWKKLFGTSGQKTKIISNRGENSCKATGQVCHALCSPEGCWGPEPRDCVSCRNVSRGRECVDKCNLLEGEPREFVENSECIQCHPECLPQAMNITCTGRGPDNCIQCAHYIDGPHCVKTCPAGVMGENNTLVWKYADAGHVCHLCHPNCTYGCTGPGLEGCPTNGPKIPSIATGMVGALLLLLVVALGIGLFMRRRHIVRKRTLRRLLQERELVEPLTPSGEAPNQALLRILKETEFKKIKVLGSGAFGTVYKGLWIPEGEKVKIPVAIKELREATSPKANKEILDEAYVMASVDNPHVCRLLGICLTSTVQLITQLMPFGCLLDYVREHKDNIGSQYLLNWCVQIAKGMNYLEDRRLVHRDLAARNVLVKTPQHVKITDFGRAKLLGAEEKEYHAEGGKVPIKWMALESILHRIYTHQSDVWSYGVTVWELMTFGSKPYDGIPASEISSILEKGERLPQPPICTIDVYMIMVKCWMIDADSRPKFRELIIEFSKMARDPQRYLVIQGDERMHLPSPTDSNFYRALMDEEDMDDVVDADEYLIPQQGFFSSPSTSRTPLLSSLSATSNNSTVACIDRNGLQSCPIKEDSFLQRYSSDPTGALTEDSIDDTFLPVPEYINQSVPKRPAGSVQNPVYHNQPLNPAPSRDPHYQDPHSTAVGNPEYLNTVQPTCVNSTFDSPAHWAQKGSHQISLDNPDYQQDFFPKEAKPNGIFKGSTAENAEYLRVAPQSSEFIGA

[1] = biological target: intracellular phosphorylation of EGFR (Tyr1068) in PC-9 cells (Ex19Del) (Homo sapiens, UniProt P00533, DEL746-750); test: PC-9 pEGFR AlphaLISA assay; format: cell-based; settings: 4 hours compound incubation, read-out: Ext pEGFR_PC-9 Ex19Del IC50
intracellular phosphorylation of EGFR (Tyr1068) in PC-9 cells (Ex19Del), sequence (P00533 with tags, fused parts or gaps DEL746-750): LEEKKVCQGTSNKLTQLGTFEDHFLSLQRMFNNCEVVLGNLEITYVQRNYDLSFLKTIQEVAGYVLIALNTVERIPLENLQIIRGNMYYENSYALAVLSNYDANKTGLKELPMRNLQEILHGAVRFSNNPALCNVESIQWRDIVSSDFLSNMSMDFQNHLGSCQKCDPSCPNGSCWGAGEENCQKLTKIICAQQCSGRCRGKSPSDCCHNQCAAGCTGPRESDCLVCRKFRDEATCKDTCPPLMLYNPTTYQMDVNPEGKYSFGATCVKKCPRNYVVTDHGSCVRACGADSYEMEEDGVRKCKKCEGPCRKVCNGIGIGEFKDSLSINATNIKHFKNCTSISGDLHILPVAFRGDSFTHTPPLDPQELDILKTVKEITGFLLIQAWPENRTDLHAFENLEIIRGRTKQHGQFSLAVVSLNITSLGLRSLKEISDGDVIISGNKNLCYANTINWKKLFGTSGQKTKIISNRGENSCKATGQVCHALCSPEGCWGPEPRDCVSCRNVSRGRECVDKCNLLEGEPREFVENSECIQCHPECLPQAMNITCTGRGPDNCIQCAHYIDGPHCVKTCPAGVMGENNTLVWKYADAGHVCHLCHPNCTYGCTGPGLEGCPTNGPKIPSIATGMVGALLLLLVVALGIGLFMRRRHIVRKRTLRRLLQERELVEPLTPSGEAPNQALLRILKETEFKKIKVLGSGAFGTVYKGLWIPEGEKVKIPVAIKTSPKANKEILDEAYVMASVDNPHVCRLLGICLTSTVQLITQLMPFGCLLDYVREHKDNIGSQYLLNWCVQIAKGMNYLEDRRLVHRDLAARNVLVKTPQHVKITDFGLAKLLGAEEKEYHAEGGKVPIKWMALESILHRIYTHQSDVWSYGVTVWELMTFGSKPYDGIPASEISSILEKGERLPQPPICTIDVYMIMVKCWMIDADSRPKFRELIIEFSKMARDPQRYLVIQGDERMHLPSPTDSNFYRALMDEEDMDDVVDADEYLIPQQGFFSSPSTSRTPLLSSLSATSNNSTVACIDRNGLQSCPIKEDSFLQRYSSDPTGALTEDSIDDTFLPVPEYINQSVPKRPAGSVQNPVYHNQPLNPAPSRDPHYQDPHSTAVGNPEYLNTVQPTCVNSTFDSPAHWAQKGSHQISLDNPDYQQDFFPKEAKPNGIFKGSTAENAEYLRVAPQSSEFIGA

T1 sequence (P00533 with tags, fused parts or gaps DEL746-750 limits assumed): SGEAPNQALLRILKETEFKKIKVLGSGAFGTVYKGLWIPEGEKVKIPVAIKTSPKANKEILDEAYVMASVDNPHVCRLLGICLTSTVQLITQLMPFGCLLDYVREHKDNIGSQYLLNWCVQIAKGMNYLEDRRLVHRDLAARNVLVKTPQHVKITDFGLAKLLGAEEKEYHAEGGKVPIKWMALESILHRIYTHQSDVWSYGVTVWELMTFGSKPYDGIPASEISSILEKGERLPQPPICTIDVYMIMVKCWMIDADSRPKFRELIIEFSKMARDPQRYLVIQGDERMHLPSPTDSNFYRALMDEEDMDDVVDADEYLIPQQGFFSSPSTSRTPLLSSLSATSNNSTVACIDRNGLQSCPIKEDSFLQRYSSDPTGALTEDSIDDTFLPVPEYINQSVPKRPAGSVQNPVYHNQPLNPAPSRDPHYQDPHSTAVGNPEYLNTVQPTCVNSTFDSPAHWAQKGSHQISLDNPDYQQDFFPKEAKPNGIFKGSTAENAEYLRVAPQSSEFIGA

Row | Structure (SMILES) | IC50 (EGFR (d746-750)) [nM] | IC50 (EGFR L858R) [nM] | IC50 [1] [nM]
1 | CN1CCC[C@H](Oc2cc(-c3cnn(C)c3)cc3ncnc(Nc4ccc5ncccc5c4F)c23)C1 [Example 35, (S)—N-(5-fluoroquinolin-6-yl)-7-(1-methyl-1H-pyrazol-4-yl)-5-((1-methylpiperidin-3-yl)oxy)quinazolin-4-amine] | < 10 | < 10 | ≤ 10
2 | CN1CCC[C@@H](Oc2cc(-c3cnn(C)c3)cc3ncnc(Nc4ccc5ncccc5c4F)c23)C1 [Example 36, (R)—N-(5-fluoroquinolin-6-yl)-7-(1-methyl-1H-pyrazol-4-yl)-5-((1-methylpiperidin-3-yl)oxy)quinazolin-4-amine] | < 10 | 10.1 to 50 | 10.1 to 50
3 | C[C@H](CN(C)C)Oc1cc(N2CC3(COC3)C2)cc2ncnc(Nc3c(F)cc4ncccc4c3F)c12 [Example 39, (R)—N-(5,7-difluoroquinolin-6-yl)-5-((1-(dimethylamino)propan-2-yl)oxy)-7-(2-oxa-6-azaspiro[3.3]heptan-6-yl)quinazolin-4-amine] | < 10 | < 10 | ≤ 10
4 | C[C@H](CN(C)C)Oc1cc(-c2cnn(C)c2)cc2ncnc(Nc3cnc4ncccc4c3)c12 [Example 40, (R)-5-((1-(dimethylamino)propan-2-yl)oxy)-7-(1-methyl-1H-pyrazol-4-yl)-N-(1,8-naphthyridin-3-yl)quinazolin-4-amine] | < 10 | 10.1 to 50 | ≤ 10
5 | C[C@H](CN(C)C)Oc1cc(-c2cnn(C)c2)cc2ncnc(Nc3ccc4nnccc4c3F)c12 [Example 41, (R)—N-(5-((1-(dimethylamino)propan-2-yl)oxy)-7-(1-methyl-1H-pyrazol-4-yl)quinazolin-4-yl)-5-fluorocinnolin-6-amine] | 10.1 to 50 | > 50.1 | > 50.1
6 | COc1cn(C)nc1-c1cc(O[C@H](C)CN(C)C)c2c(Nc3ccc4ncccc4c3F)ncnc2c1 [Example 45, (R)-5-((1-(dimethylamino)propan-2-yl)oxy)-N-(5-fluoroquinolin-6-yl)-7-(4-methoxy-1-methyl-1H-pyrazol-3-yl)quinazolin-4-amine] | < 10 | < 10 | ≤ 10
7 | C[C@@H](Oc1cc(-c2cnn(C)c2)cc2ncnc(Nc3ccc4ncccc4c3F)c12)C1COC1 [Example 46, (R)—N-(5-fluoroquinolin-6-yl)-7-(1-methyl-1H-pyrazol-4-yl)-5-(1-(oxetan-3-yl)ethoxy)quinazolin-4-amine] | < 10 | < 10 | ≤ 10
8 | C[C@@H](Oc1cc(-c2cnn(C(C)(C)CO)c2)cc2ncnc(Nc3ccc4ncccc4c3F)c12)C1COC1 [Example 47, (R)-2-(4-(4-(5-fluoroquinolin-6-ylamino)-5-(1-(oxetan-3-yl)ethoxy)quinazolin-7-yl)-1H-pyrazol-1-yl)-2-methylpropan-1-ol] | < 10 | < 10 | ≤ 10
9 | C[C@@H](Oc1cc(-c2cnn(CC(C)(C)O)c2)cc2ncnc(Nc3ccc4ncccc4c3F)c12)C1COC1 [Example 48, (R)-1-(4-(4-(5-fluoroquinolin-6-ylamino)-5-(1-(oxetan-3-yl)ethoxy)quinazolin-7-yl)-1H-pyrazol-1-yl)-2-methylpropan-2-ol] | < 10 | < 10 | ≤ 10
10 | C[C@H](CN(C)C)Oc1cc(-c2cn[nH]c2)cc2ncnc(Nc3ccc4ncccc4c3F)c12 [Example 49, (R)-5-((1-(dimethylamino)propan-2-yl)oxy)-N-(5-fluoroquinolin-6-yl)-7-(1H-pyrazol-4-yl)quinazolin-4-amine] | < 10 | < 10 | ≤ 10
11 | CN1CCC(Oc2cc(-c3cnn(C)c3)cc3ncnc(Nc4ccc5ncccc5c4F)c23)CC1 [Example 50, N-(5-fluoroquinolin-6-yl)-7-(1-methyl-1H-pyrazol-4-yl)-5-((1-methylpiperidin-4-yl)oxy)quinazolin-4-amine] | < 10 | < 10 | ≤ 10
12 | C[C@@H](Oc1cc(-c2cnn(CCO)c2)cc2ncnc(Nc3ccc4ncccc4c3F)c12)C1COC1 [Example 51, (R)-2-(4-(4-((5-fluoroquinolin-6-yl)amino)-5-(1-(oxetan-3-yl)ethoxy)quinazolin-7-yl)-1H-pyrazol-1-yl)ethan-1-ol] | < 10 | < 10 | ≤ 10
13 | COCCn1cc(-c2cc(O[C@H](C)C3COC3)c3c(Nc4ccc5ncccc5c4F)ncnc3c2)cn1 [Example 52, (R)—N-(5-fluoroquinolin-6-yl)-7-(1-(2-methoxyethyl)-1H-pyrazol-4-yl)-5-(1-(oxetan-3-yl)ethoxy)quinazolin-4-amine] | < 10 | < 10 | ≤ 10
14 | CN1CCC(Oc2cc(-c3cnn(CC(F)F)c3)cc3ncnc(Nc4ccc5ncccc5c4F)c23)CC1 [Example 53, 7-(1-(2,2-difluoroethyl)-1H-pyrazol-4-yl)-N-(5-fluoroquinolin-6-yl)-5-((1-methylpiperidin-4-yl)oxy)quinazolin-4-amine] | < 10 | < 10 | ≤ 10
15 | COc1nn(C)cc1-c1cc(O[C@H](C)CN(C)C)c2c(Nc3ccc4ncccc4c3F)ncnc2c1 [Example 54, (R)-5-((1-(dimethylamino)propan-2-yl)oxy)-N-(5-fluoroquinolin-6-yl)-7-(3-methoxy-1-methyl-1H-pyrazol-4-yl)quinazolin-4-amine] | < 10 | < 10 | ≤ 10
16 | C[C@H](CN(C)C)Oc1cc(-c2cnn(CC(F)F)c2)cc2ncnc(Nc3ccc4ncccc4c3F)c12 [Example 55, (R)-7-(1-(2,2-difluoroethyl)-1H-pyrazol-4-yl)-5-((1-(dimethylamino)propan-2-yl)oxy)-N-(5-fluoroquinolin-6-yl)quinazolin-4-amine] | < 10 | < 10 | ≤ 10
17 | COc1cc(O[C@H](C)C2COC2)c2c(Nc3ccc4ncccc4c3F)ncnc2c1 [Example 56, (R)—N-(5-fluoroquinolin-6-yl)-7-methoxy-5-(1-(oxetan-3-yl)ethoxy)quinazolin-4-amine] | < 10 | < 10 | ≤ 10
18 | COc1cc(O[C@H](C)CN(C)C)c2c(Nc3ccc4ncccc4c3F)ncnc2c1 [Example 57, (R)-5-((1-(dimethylamino)propan-2-yl)oxy)-N-(5-fluoroquinolin-6-yl)-7-methoxyquinazolin-4-amine] | < 10 | 10.1 to 50 | 10.1 to 50
19 | CCOc1cc2ncnc(Nc3ccc4ncccc4c3F)c2c(O[C@H](C)CN(C)C)n1 [Example 58, (R)-5-((1-(dimethylamino)propan-2-yl)oxy)-7-ethoxy-N-(5-fluoroquinolin-6-yl)pyrido[4,3-d]pyrimidin-4-amine] | 10.1 to 50 | > 50.1 | > 50.1
20 | C[C@@H](Oc1cc(N2CC3CC(C2)O3)cc2ncnc(Nc3ccc4ncccc4c3F)c12)C1COC1 [Example 59, 7-(6-oxa-3-azabicyclo[3.1.1]heptan-3-yl)-N-(5-fluoroquinolin-6-yl)-5-((R)-1-(oxetan-3-yl)ethoxy)quinazolin-4-amine] | < 10 | < 10 | ≤ 10
21 | C[C@@H](Oc1cc(N2CCOC(C)(C)C2)cc2ncnc(Nc3ccc4ncccc4c3F)c12)C1COC1 [Example 60, (R)-7-(2,2-dimethylmorpholino)-N-(5-fluoroquinolin-6-yl)-5-(1-(oxetan-3-yl)ethoxy)quinazolin-4-amine] | < 10 | 10.1 to 50 | 10.1 to 50
22 | C[C@@H](Oc1cc(N2CCOCC2)cc2ncnc(Nc3ccc4ncccc4c3F)c12)C1COC1 [Example 61, (R)—N-(5-fluoroquinolin-6-yl)-7-morpholino-5-(1-(oxetan-3-yl)ethoxy)quinazolin-4-amine] | < 10 | < 10 | ≤ 10
23 | C[C@@H](Oc1cc(N2CC[C@H](C(C)(C)O)C2)cc2ncnc(Nc3ccc4ncccc4c3F)c12)C1COC1 [Example 62, 2—((S)-1-(4-((5-fluoroquinolin-6-yl)amino)-5-((R)-1-(oxetan-3-yl)ethoxy)quinazolin-7-yl)pyrrolidin-3-yl)propan-2-ol] | < 10 | < 10 | ≤ 10
24 | C[C@@H](Oc1cc(N2CC[C@@H](C(C)(C)O)C2)cc2ncnc(Nc3ccc4ncccc4c3F)c12)C1COC1 [Example 63, 2—((R)-1-(4-((5-fluoroquinolin-6-yl)amino)-5-((R)-1-(oxetan-3-yl)ethoxy)quinazolin-7-yl)pyrrolidin-3-yl)propan-2-ol] | < 10 | < 10 | ≤ 10
25 | C[C@@H](Oc1cc(N2CC3(COC3)C2)cc2ncnc(Nc3ccc4ncccc4c3F)c12)C1COC1 [Example 64] | < 10 | < 10 | ≤ 10
26 | C[C@H](CN(C)C)Oc1cc(N2CCOCC2)cc2ncnc(Nc3ccc4ncccc4c3F)c12 [Example 65, (R)-5-((1-(dimethylamino)propan-2-yl)oxy)-N-(5-fluoroquinolin-6-yl)-7-morpholinoquinazolin-4-amine] | < 10 | 10.1 to 50 | ≤ 10
27 | C[C@H](CN(C)C)Oc1cc(N2CC3CCC(C2)O3)cc2ncnc(Nc3ccc4ncccc4c3F)c12 [Example 69, 7-(8-oxa-3-azabicyclo[3.2.1]octan-3-yl)-5-(((R)-1-(dimethylamino)propan-2-yl)oxy)-N-(5-fluoroquinolin-6-yl)quinazolin-4-amine] | 10.1 to 50 | > 50.1 | > 50.1
28 | C[C@H](CN(C)C)Oc1cc(N2CC3CC(C2)O3)cc2ncnc(Nc3ccc4ncccc4c3F)c12 [Example 70, 7-(6-oxa-3-azabicyclo[3.1.1]heptan-3-yl)-5-(((R)-1-(dimethylamino)propan-2-yl)oxy)-N-(5-fluoroquinolin-6-yl)quinazolin-4-amine] | < 10 | 10.1 to 50 | ≤ 10
